Data: patent US11285160B2, “Pharmaceutical composition and method for treatment of non-alcoholic fatty liver disease” (MITSUBISHI TANABE PHARMA CORPORATION, priority 2016, dated 2022)

What was measured:
[1] = tested on: CDAA diet-loaded rats; assay: Hepatic fibrosis development in NASH animal model (CDAA diet-loaded rat), repeated oral administration for 10 weeks; format: in vivo, F344 rats; settings: for Sirius red positive areas (%) (mean ± S.E.): primary endpoint; for Fibrosis development score (mean ± S.E.): score 0-4 (Table 3), secondary endpoint
Text: Some heads of F344 rats (5-week-old, body weight 67.5 to 87.5 g, purchased from Japan SLC, Inc.) were housed (for quarantine inspection and acclimatization) for 15 days while receiving a normal diet, and were then used as a test animal. The rats were divided into six treatment groups by stratified random allocation using body weight as a randomization factor (each 10 heads of the rats per group). The test compounds (that is, the compound (I) or eplerenone) were suspended into 0.5% aqueous carmellose sodium solution containing a vehicle (0.1% polyoxyethylene hydrogenated castor oil (HCO-60, manufactured by Nikko Chemicals Co., Ltd.)), and the resultant suspensions were used (10 mL/kg). The rats were loaded with a CDAA diet (choline deficient L-amino acid defined diet), and simultaneously with the loading, were received with a repeated oral administration of the above-mentioned compound (I) (1 mg/kg, 3 mg/kg, and 10 mg/kg) at once per day for 10 weeks (hereinafter, which is referred to as “Compound (I)-treated group”). Also, the rats that were loaded with the CDAA diet and were received with the administration of the above-mentioned vehicle (10 mL/kg) were assigned to “disease control group”, and also the rats that were loaded with the CSAA diet and were received with the administration of the above-mentioned vehicle (10 mL/kg) were assigned to “normal control group”. While, “positive control group” rats were loaded with the CDAA diet and were received with a repeated oral administration of eplerenone (100 mg/kg) at once per day for 10 weeks.
After the administration, the test tissues were sampled from lamella of the extracted liver, and the pathological specimens were constructed. Each effect of the respective test compound on NASH was examined using the Sirius red positive areas of the specimens as a primary endpoint. Also the fibrosis development scores of hepatic pathological specimens in each group were examined as the secondary endpoint.

[2] = tested on: UGT enzymes (Uridine diphosphate glucuronosyltransferase); assay: Main metabolic pathway of compound (I); format: in vitro ADME; settings: estimated
[3] = target: CYP3A4 (cytochrome P450 3A4) (Homo sapiens, UniProt P08684); settings: Non-Patent documents 12 and 13; cited from earlier work
[4] = background statement; cited from earlier work
[5] = CDAA diet-loaded rats, 1 mg/kg oral once per day for 10 weeks
[6] = CDAA diet-loaded rats, 3 mg/kg oral once per day for 10 weeks
[7] = CDAA diet-loaded rats, 10 mg/kg oral once per day for 10 weeks
[8] = CDAA diet-loaded rats, 100 mg/kg oral once per day for 10 weeks

Chain of CYP3A4 (cytochrome P450 3A4) (P08684 whole entry): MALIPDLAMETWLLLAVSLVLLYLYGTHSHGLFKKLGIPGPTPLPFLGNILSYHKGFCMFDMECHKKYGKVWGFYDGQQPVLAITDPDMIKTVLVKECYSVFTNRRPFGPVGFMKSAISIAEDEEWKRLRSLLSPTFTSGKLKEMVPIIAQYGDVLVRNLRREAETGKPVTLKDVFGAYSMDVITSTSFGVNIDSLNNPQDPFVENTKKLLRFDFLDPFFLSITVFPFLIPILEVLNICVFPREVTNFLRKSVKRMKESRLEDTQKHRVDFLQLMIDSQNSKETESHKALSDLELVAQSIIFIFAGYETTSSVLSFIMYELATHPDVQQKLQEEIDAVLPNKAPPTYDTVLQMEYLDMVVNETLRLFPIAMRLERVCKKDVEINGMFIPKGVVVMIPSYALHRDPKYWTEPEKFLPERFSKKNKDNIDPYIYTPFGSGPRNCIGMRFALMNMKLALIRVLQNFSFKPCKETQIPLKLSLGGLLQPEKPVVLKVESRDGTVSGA

In the case of CC1(C)Oc2cc(NS(C)(=O)=O)ccc2N(c2ccc(F)cc2)C1=O [Compound (I)], the “Sirius red positive areas as compared with disease control group” value ([1]; 1 mg/kg, 3 mg/kg and 10 mg/kg-treated groups, all) is reported as “significantly lower”, the “Fibrosis development scores as compared with disease control group” value ([1]; 3 mg/kg-treated group and 10 mg/kg-treated group) is reported as “significantly lower value” and the “Sirius red positive areas (%) (mean ± S.E.)” value (from here on “Sirius red positive areas (%)”) [1, 5] is reported as 4.0 ± 0.3 %. For the same compound, the “Fibrosis development score (mean ± S.E.)” value [1, 5] was 3.0 ± 0.0, the “Sirius red positive areas (%)” value [1, 6] was 3.6 ± 0.4 % and the “Fibrosis development score (mean ± S.E.)” value [1, 6] was 2.7 ± 0.2. For the same compound, the “Sirius red positive areas (%)” value [1, 7] was 1.8 ± 0.2 %, the “Fibrosis development score (mean ± S.E.)” value [1, 7] was 2.2 ± 0.1 and the “Progression of fibrosis development of liver” value ([1]; CDAA diet-loaded rats, overall conclusion) was “significantly inhibit”. For the same compound, the “Sirius red positive area value at the lowest dose in comparison with eplerenone at a higher dose” value ([1]; compound (I) lowest dose (1 mg/kg) vs eplerenone 100 mg/kg) was “significantly lower area value” and the Main metabolic pathway [2] was “glucuronide conjugation by UGT enzymes”.
In the case of COC(=O)[C@@H]1CC2=CC(=O)CC[C@]2(C)[C@@]23O[C@@H]2C[C@@]2(C)[C@@H](CC[C@@]24CCC(=O)O4)[C@H]13 [Eplerenone, eplerenone, reference compound], the Metabolizing enzyme [3] is listed as “metabolized mainly by CYP3A4”, the “Fibrosis development scores as compared with disease control group” value ([1]; 100 mg/kg, positive control group) is listed as “not significantly different” and the “Sirius red positive areas (%)” value [1, 8] is listed as 2.8 ± 0.2 %. The “Fibrosis development score (mean ± S.E.)” value [1, 8] was 3.0 ± 0.0 and the Half-life in blood [4] was “short half-life”.
